Experimental data taken from ChEMBL document CHEMBL4706630, “Modulation of the G-Protein-Coupled Receptor 84 (GPR84) by Agonists and Antagonists” (J Med Chem, 2020).

Legend:
[1] = molecular target: T1, G-protein coupled receptor 84 (Homo sapiens, UniProt Q9NQS5); test: Agonist activity at human Gialpha-coupled GPR84 expressed in baculovirus infected sf9 insect cells assessed as induction of [35S]GTPgammaS incubated for 1 hr by liquid scintillation counting method; format: functional
[2] = molecular target: T2, G-protein coupled receptor 84 (Mus musculus, UniProt Q8CIM5); test: Agonist activity at GPR84 in mouse bone-marrow-derived neutrophils assessed as stimulation of [35S]GTPgammaS binding incubated for 60 mins by liquid scintillation spectroscopy; format: functional, tissue-based, Neutrophil
T2 sequence (Q8CIM5 whole entry, the tested form may be a part): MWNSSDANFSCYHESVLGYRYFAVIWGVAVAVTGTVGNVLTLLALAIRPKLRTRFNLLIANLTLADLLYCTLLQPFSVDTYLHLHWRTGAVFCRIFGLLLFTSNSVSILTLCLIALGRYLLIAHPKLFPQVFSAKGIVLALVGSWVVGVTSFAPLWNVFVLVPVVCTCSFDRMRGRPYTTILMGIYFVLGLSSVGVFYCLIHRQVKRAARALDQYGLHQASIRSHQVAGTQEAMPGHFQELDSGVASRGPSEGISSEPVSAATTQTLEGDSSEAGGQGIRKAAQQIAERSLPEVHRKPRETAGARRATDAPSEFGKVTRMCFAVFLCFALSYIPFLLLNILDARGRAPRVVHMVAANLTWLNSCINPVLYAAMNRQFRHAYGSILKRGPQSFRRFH

[3] = molecular target: T1, G-protein coupled receptor 84; test: (§1) Antagonist activity at recombinant human N-terminal epitope tagged/eYFP-fused FLAG-tagged GPR84 expressed in Flp-In TREx 293 cells assessed as inhibition of decanoic acid-induced [35S]GTPgammaS binding pre-incubated for 15 mins followed by [35S]GTPgammaS addition and measured after 45 mins by liquid scintillation spectrometry; format: functional, cell-based, Flp-In-T-REx-293
[4] = molecular target: T1, G-protein coupled receptor 84; test: as §1, with “embelin-induced” for “decanoic acid-induced”; format: functional, cell-based, Flp-In-T-REx-293
[5] = molecular target: T1, G-protein coupled receptor 84; test: as §1, with “DIM-induced” for “decanoic acid-induced”; format: functional, cell-based, Flp-In-T-REx-293
[6] = molecular target: T1, G-protein coupled receptor 84; test: Antagonist activity at human GPR84 expressed in CHO-K1 cells assessed as reduction in 6-OAU-induced inhibition of forskolin stimulated cAMP production preincubated for 15 mins followed by forskolin and 6-OAU stimulation and measured after 30 mins by luminescence method; format: functional, cell-based
[7] = molecular target: T1, G-protein coupled receptor 84; test: Agonist activity at human GPR84 expressed in CHO cells assessed as reduction in forskolin-stimulated cAMP production preincubated for 20 mins followed by forskolin stimulation and measured after 20 mins by cAMP assay; format: functional, cell-based
[8] = molecular target: T1, G-protein coupled receptor 84; test: Agonist activity at human GPR84 expressed in CHO cell membranes assessed as induction of [35S]GTPgammaS incorporation incubated for 1 hr by liquid scintillation counting method; format: functional, Cell membrane
[9] = molecular target: T1, G-protein coupled receptor 84; test: (§2) Antagonist activity at human Flag-tagged Gialpha-coupled GPR84 expressed in human Flp-In-T-REx-293 cell membrane assessed as reduction in PSB-16671-induced stimulation of [35S]GTPgammaS binding preincubated for 15 mins followed by PSB-16671 addition and subsequent addition of [35S]GTPgammaS measured after 60 mins by liquid scintillation spectroscopy; format: functional, cell membranes
[10] = molecular target: T2, G-protein coupled receptor 84; test: as §2, with “mouse Galphai2-coupled” for “human Flag-tagged Gialpha-coupled”; format: functional, cell membranes
[11] = molecular target: T1, G-protein coupled receptor 84; test: (§3) Antagonist activity at GPR84 in LPS-treated human THP-1 cell membrane assessed as reduction in ZQ-16-induced stimulation of [35S]GTPgammaS binding preincubated for 15 mins followed by ZQ-16 addition and subsequent addition of [35S]GTPgammaS measured after 60 mins by liquid scintillation spectroscopy; format: functional
[12] = molecular target: T1, G-protein coupled receptor 84; test: as §3, with “PSB-16671-induced” for “ZQ-16-induced”, “PSB-16671” for “ZQ-16”; format: functional
[13] = molecular target: T2, G-protein coupled receptor 84; test: as §2, with “at” for “at human Flag-tagged Gialpha-coupled”, “GPR84” for “GPR84 expressed”, “LPS-treated mouse RAW 264.7” for “human Flp-In-T-REx-293”; format: functional, cell membranes, RAW264.7

T1 sequence (Q9NQS5 whole entry): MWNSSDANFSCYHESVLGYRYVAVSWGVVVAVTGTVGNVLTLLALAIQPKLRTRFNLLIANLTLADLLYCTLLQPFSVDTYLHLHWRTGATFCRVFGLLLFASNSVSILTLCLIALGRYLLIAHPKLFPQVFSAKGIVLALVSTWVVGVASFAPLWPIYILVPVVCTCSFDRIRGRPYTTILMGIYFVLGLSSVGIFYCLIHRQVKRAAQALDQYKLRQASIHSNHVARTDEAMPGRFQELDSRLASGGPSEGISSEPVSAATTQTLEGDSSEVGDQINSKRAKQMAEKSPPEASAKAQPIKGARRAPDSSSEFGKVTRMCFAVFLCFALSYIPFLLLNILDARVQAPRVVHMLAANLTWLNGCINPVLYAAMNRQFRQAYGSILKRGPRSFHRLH

## CCCCCCCCCC(O)CC(=O)O (stereo not given)
[1]
  EC50: 13000 nM

## CCCCCCSc1nc(O)cc(O)n1
[2]
  EC50: 12.9 nM

## O=c1nc(OC[C@@H]2COCCO2)cc2n1CCc1cc(COCC3CCOCC3)ccc1-2
[3]
  IC50: 168 nM
[4]
  IC50: 83 nM
[5]
  IC50: 55 nM

## Fc1cc(F)c2[nH]cc(Cc3c[nH]c4c(F)cc(F)cc34)c2c1
[2]
  EC50: 2880 nM

## O=c1nc(OC[C@H]2COCCO2)cc2n1CCc1cc(OCc3noc(C4CC4)n3)ccc1-2
[3]
  IC50: 28 nM
[4]
  IC50: 14 nM
[5]
  IC50: 86 nM

## O=c1nc(OCC2COCCO2)cc2n1CCc1cc(OCc3ccccn3)ccc1-2 (stereo not given)
[6]
  IC50: 260 nM

## CCCCCCCCC(=O)O [NONANOATE]
[7]
  EC50: 52300 nM
[8]
  EC50: 70200 nM

## O=c1nc(OCC2COCCO2)cc2n1CCc1cc(C#CCNc3ccccc3)ccc1-2 (stereo not given)
[3]
  IC50: 25 nM
[4]
  IC50: 22 nM
[5]
  IC50: 21 nM
[9]
  IC50: 0.9 nM
[10]
  IC50: 68 nM
[11]
  IC50: 14 nM
[12]
  IC50: 4.8 nM
[13]
  IC50: 145 nM
